Earlier results on one compound are cited in patent publication US20160186266A1, “MOLECULAR PROFILING FOR PERSONALIZED MEDICINE” (CARIS LIFE SCIENCES, INC., priority 2009, published 2016).

Molecules are shown by their SMILES.

One series deals with c-Kit (Homo sapiens, UniProt P10721).
Series [1] deals with platelet-derived growth factor receptor (PDGFR).

Sequence of c-Kit (P10721 26-976): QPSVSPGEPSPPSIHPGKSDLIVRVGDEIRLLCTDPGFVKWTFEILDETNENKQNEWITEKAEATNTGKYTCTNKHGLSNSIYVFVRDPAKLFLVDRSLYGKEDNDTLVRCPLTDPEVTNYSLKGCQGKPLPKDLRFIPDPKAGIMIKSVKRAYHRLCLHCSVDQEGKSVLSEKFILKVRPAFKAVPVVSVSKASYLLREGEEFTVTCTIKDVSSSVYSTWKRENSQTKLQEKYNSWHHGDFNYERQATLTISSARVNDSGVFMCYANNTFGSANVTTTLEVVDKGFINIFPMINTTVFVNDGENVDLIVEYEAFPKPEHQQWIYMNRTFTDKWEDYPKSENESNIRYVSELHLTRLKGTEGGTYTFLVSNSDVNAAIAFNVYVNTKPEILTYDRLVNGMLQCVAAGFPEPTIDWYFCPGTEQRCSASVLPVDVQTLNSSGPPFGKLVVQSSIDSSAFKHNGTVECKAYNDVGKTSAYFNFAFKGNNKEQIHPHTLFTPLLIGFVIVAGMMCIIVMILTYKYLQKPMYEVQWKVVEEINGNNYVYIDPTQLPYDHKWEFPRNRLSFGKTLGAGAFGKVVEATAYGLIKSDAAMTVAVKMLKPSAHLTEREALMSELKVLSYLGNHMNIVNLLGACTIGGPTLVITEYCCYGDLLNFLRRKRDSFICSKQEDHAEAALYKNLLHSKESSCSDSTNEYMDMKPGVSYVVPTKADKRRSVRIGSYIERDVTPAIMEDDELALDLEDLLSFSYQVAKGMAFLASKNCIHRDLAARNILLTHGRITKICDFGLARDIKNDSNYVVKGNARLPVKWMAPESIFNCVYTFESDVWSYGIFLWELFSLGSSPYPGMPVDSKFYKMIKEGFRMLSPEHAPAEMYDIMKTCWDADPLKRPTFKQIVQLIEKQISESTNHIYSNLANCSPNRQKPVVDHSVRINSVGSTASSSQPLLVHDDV

Take `Cc1ccc(NC(=O)c2ccc(CN3CCN(C)CC3)cc2)cc1Nc1nccc(-c2cccnc2)n1` [Imatinib]: the “effect on kinase activity” value (at c-Kit; in series [1]) was “block the activity” in each case.
